Results reported in ChEMBL document CHEMBL1147497, “The inhibition of metallo-beta-lactamase by thioxo-cephalosporin derivatives” (Bioorg Med Chem Lett, 2004).

Assays:
[1] = pKa in water at 30 degree C; format: physicochemical
[2] = Binding affinity against nitrocefin

Structure (SMILES) | pKa [1] | Ki [2]
CC1=C(C(=O)O)N[C@@H](C2NC(=O)C(c3ccccc3)N=C2S)SC1 (some centres not stated) | 10.1 | 
CC1=C(C(=O)O)N2C(=S)[C@@H](NC(=O)Cc3ccccc3)[C@H]2SC1 |  | 720 µM
